Data on nine molecules can be found in ChEMBL document CHEMBL1201862, “PubChem BioAssay data set” (2004).

The source made the active and inactive calls. Bounds are passed on as bounds.

A short description of experiment [1]: cells.
For experiment [2], the target named is T1, Oxysterols receptor LXR-beta (Homo sapiens, UniProt P55055).
T1 sequence (P55055 whole entry): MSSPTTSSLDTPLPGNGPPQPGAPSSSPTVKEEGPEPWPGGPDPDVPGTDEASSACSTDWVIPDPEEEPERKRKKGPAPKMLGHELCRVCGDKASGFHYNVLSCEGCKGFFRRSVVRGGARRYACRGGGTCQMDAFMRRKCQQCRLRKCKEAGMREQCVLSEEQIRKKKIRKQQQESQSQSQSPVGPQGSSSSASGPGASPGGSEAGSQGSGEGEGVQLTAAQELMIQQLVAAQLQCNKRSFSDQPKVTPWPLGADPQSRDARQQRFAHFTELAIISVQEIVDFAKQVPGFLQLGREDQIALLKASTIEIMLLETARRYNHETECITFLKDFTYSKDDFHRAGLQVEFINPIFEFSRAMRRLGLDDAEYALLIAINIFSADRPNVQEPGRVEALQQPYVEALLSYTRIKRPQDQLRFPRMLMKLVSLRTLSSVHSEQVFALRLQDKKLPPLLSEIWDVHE
In kind it is functional, cell-based.

The target of experiment [3] is T1, Oxysterols receptor LXR-beta. Kind of experiment: LXR agonists, Gal4 luciferase reporter, dose response, counter-screen for ssDAF-12 agonist project, cell-based, luminescence, HEK293, S. stercoralis campaign (AID 720737). Format: functional. Particulars: read-out: IC50 (the source's name).
Experiment [4] can be described thus: Luminescence-based cell-based high throughput dose response assay to identify activators of the DAF-12 from the parasite S. stercoralis (ssDAF-12). In kind it is functional.
For experiment [5], the target named is T2, Probable nicotinate-nucleotide adenylyltransferase (Staphylococcus aureus (strain N315), UniProt P65502). Format: functional, Staphylococcus aureus subsp. aureus N315. Particulars: read-out: IC50_Mean.
T2 sequence (P65502 whole entry): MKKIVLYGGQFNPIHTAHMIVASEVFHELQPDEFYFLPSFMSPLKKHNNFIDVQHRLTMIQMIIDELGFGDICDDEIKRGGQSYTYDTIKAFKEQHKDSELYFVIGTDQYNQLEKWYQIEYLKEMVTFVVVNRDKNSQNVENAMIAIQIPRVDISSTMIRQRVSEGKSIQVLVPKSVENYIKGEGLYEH
For experiment [6], the target named is Glucose-6-phosphate 1-dehydrogenase (Homo sapiens, UniProt P11413). The experiment in a line: human G6PD enzyme inhibitors, dose response, selectivity assay for P. falciparum G6PD inhibitor project, biochemical, fluorescence (AID 504792). Format: functional.
Chain of Glucose-6-phosphate 1-dehydrogenase (P11413 whole entry): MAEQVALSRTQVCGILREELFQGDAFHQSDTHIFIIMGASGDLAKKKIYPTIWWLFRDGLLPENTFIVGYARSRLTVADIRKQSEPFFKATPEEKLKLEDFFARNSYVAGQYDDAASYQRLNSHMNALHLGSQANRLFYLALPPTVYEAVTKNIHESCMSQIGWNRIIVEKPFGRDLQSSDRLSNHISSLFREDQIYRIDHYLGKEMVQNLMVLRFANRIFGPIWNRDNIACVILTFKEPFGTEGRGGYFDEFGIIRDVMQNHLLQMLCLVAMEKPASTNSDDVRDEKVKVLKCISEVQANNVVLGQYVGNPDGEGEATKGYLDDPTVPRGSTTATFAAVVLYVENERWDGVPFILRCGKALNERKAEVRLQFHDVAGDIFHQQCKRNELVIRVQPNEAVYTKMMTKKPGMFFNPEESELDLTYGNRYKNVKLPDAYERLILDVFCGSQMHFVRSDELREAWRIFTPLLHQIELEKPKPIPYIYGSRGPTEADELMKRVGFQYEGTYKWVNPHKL
A short description of experiment [7]: THP-1 cell cytotoxicity, dose response, cytotoxicity control for Vif-APOBEC3G degradation inhibitor project, THP-1 cells (AID 1117359). Format: functional. Conditions: Human immunodeficiency virus 1, THP-1.
The target in the next experiment is Genome polyprotein (dengue virus type 2, UniProt P29990). The experiment in a line: Dengue-2 NS5 methyltransferase inhibitors, primary screen, biochemical, confirmation dose response (AID 588689). In kind it is functional.
Chain of Genome polyprotein (P29990 2492-3391 limits assumed): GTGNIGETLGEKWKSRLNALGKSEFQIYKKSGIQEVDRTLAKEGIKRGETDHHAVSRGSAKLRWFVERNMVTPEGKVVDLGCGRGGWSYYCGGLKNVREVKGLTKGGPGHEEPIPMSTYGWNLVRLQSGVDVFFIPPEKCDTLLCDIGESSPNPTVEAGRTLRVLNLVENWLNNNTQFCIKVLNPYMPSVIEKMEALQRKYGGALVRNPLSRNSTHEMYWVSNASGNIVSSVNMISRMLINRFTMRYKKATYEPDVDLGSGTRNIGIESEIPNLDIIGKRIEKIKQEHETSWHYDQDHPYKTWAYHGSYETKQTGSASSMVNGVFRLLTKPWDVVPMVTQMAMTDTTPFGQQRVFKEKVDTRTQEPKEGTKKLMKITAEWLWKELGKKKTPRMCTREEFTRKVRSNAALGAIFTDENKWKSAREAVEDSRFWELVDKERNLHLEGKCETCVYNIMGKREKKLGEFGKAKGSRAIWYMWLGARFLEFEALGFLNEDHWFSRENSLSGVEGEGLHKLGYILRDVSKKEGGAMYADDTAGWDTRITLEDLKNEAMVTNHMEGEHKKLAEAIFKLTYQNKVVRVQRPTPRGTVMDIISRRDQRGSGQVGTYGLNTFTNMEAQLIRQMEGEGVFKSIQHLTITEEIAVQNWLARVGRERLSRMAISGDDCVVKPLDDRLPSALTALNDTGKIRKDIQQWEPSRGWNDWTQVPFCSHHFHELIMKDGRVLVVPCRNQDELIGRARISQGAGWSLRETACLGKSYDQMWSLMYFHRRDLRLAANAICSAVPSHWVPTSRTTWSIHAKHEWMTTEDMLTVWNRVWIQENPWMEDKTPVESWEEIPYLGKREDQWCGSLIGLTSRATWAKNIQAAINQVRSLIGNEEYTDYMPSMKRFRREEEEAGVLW
For a further experiment, the system named is Vero. The experiment in a line: Vero cell cytotoxicity, cytotoxicity control for flavivirus capping enzyme inhibitors (AID 588742). In kind it is functional. Particulars: Chlorocebus sabaeus.
In a further experiment the target is Protein Tat (Human immunodeficiency virus type 1 group M subtype B (isolate HXB2)(HIV-1), UniProt P04608). In kind it is functional.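 Further: tat binding to TAR RNA read out by fluorescence polarization.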
Chain of Protein Tat (P04608 whole entry): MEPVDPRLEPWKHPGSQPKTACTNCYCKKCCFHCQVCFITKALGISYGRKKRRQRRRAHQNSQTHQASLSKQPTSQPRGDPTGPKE
Experiment [8] addresses T2, Probable nicotinate-nucleotide adenylyltransferase. Format: functional, Staphylococcus aureus subsp. aureus N315.
The nature of experiment [9]: HepG2 cell cytotoxicity, dose response, cytotoxicity control, ATP luminescence, cherry-pick, set 6 (AID 1053125). Format: functional, cell-based.
A short description of experiment [10]: cells. Particulars: A549.
Another experiment relates to HeLa. The experiment in a line: HeLa cell cytotoxicity, dose response, cytotoxicity control for MITF activator project, CellTiter-Glo luminescence, cherry-pick samples (AID 540259). Format: functional, cell-based. Conditions: Homo sapiens.
Experiment [11] in a line: cells. Particulars: HEK293.
In experiment [12] the target is E3 ubiquitin-protein ligase UHRF1 (Homo sapiens, UniProt Q96T88). The experiment in a line: Counterscreen for inhibitors of 5-meCpG-binding domain protein 2 (MBD2): TRFRET-based biochemical high throughput dose response assay to identify inhibitors of binding of ubiquitin-like with PHD and ring finger domains 1 (UHRF1) to methylated oligonucleotide. (The purpose of a counterscreen is to sort out artefacts and off-target activity.)
Chain of E3 ubiquitin-protein ligase UHRF1 (Q96T88 whole entry, the tested form may be a part): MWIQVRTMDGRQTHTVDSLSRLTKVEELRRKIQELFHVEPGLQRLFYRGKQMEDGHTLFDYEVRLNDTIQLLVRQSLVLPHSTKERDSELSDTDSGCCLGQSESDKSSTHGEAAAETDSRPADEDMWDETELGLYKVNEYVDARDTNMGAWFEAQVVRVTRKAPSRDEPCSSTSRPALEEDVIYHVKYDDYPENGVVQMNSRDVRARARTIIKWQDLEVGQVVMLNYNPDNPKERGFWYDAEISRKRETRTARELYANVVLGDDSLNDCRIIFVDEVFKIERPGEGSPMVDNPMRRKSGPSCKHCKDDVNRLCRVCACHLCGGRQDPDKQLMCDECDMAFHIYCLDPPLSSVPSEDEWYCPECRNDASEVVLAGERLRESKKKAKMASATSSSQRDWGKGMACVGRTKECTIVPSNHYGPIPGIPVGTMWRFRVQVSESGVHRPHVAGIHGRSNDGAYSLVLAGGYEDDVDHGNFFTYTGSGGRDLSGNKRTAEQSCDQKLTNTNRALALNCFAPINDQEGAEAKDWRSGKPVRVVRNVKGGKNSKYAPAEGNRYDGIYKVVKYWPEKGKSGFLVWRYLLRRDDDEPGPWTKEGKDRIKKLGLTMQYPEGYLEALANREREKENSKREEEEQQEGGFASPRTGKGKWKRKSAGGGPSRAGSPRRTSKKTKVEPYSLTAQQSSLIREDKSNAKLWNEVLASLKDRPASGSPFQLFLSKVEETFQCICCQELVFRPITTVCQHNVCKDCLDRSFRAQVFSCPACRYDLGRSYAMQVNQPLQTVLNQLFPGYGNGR

The target of experiment [13] is T3, DNA repair and recombination protein RAD54-like (Homo sapiens, UniProt Q92698).
T3 sequence (Q92698 whole entry): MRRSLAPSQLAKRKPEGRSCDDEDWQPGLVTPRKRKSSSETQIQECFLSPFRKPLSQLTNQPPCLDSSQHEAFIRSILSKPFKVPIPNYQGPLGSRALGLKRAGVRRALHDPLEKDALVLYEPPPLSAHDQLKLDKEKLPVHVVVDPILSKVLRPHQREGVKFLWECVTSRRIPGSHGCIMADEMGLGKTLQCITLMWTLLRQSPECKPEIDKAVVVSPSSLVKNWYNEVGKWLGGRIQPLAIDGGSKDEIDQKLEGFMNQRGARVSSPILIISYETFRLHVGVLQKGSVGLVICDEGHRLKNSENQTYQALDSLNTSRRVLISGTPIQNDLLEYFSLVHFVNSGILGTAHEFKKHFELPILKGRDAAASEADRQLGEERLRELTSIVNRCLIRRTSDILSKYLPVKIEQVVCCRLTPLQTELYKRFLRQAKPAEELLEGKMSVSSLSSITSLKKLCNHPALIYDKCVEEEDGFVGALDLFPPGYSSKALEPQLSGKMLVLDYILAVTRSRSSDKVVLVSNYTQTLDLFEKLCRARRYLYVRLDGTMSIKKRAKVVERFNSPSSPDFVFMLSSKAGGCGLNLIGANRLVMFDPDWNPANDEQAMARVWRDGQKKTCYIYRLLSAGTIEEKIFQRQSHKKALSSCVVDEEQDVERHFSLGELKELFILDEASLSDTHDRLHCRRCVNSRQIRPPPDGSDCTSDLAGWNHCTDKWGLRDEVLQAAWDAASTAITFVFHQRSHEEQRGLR
The experiment in a line: inhibitors of human RAD54 branch migration, confirmation, biochemical, fluorescence, cherry-picked samples, dose series (AID 651657). In kind it is functional.

Experiment [14] addresses RNA-editing ligase 1, mitochondrial (Trypanosoma brucei brucei, UniProt P86926). Kind of experiment: TbREL1 ligase inhibitors, dose response, biochemical, fluorescence, Trypanosoma brucei (AID 1117295). In kind it is functional.
Experiment [15] in a line: Orthopox viral replication plaque formation Measured in Cell-Based and Microorganism Combination System Using Imaging - 2142-05_Inhibitor_Dose_DryPowder_Activity. Format: functional.
Experiment [16] is described as follows: A549 cell cytotoxicity, dose response, CellTiter-Glo luminescence, dry powder, set 17 (AID 1117284). In kind it is functional, cell-based. For orientation: Cellular ATP, detected with luciferase, serves as a proxy for viable cell number.
The nature of experiment [17]: A549 cell cytotoxicity, dose response, cytotoxicity control, 24 h, CellTiter-Glo luminescence, cherry-picks (AID 1053115). In kind it is functional, cell-based. Conditions: A549, 24 h.
Experiment [18] can be described thus: Dose-response inhibition of insulin secretion in a rat insulinoma line at 5 mM glucose (AID 1117331). Format: functional, cell-based. Conditions: INS-1E.
Experiment [19] is described as follows: Mtb BioA inhibitors by displacement, dose response, biochemical, coupled fluorescence displacement, 20-point, dry powder (AID 743357). Format: functional.
The target in experiment [20] is G-protein coupled receptor 183 (Homo sapiens, UniProt P32249). Kind of experiment: SAR confirmation of small molecule antagonists of the EBI2 receptor via a luminescent beta-arrestin assa. In kind it is functional.
Chain of G-protein coupled receptor 183 (P32249 whole entry): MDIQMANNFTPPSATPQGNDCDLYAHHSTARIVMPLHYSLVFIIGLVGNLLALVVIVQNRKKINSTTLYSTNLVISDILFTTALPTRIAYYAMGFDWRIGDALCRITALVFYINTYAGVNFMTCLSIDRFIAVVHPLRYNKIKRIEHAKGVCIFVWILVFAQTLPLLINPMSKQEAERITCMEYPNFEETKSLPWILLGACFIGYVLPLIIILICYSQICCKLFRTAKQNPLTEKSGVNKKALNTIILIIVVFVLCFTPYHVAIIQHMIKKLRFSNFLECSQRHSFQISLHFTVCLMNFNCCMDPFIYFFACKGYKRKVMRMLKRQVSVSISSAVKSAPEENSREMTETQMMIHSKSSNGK
For another experiment, the system named is P388/ADR. Kind of experiment: cells. In kind it is functional. Conditions: Mus musculus.
A short description of experiment [21]: CellTiter-Glo luminescent dose response of DLD-1 viability loss (AID 1117352). In kind it is functional.
Experiment [22] is described as follows: microbe, parasite or virus in culture. Format: functional. Conditions: Mycobacterium tuberculosis.
The nature of experiment [23]: cytotoxicity toward Colo320 cells – cell-based, CellTiter-Glo luminescence, IC50, dose response (AID 1117334). In kind it is functional. Particulars: COLO 320.
Experiment [24] can be described thus: cytotoxicity toward DRD oncogenic fibroblasts, dose response, cell-based, non-viral oncogenic, luminescence (AID 1934). Conditions: Homo sapiens. Format: functional.
Experiment [25] can be described thus: cytotoxicity toward HT-29 cells – cell-based, CellTiter-Glo luminescence, IC50, dose response (AID 1117330). In kind it is functional.
The nature of experiment [26]: cytotoxicity toward HCT116 cells – cell-based, CellTiter-Glo luminescence, IC50, dose response (AID 1117332). Conditions: HCT-116. In kind it is functional.
Experiment [27] concerns BJ. The experiment in a line: cytotoxicity toward Ras-transformed BJeLR fibroblasts, dose response, cell-based, alamar blue fluorescence, cherrypicked samples (AID 2631).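 Further: confirmatory dose-response assay in RAS-dependent BJ fibroblasts engineered with TERT, LT and ST, with cytotoxicity read by fluorescence.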 Particulars: Homo sapiens. In kind it is functional. (The colour change of resazurin is a common sign of viable cells or microbes.)
Experiment [28] in a line: HeLa 4N DNA content increase, dose response, cell-based, IC50 (AID 1117351). In kind it is functional.
Experiment [29] in a line: HCT116 cell viability decrease, GSK3B pretreatment – CellTiter-Glo, IC50, dose response (AID 1117339). In kind it is functional. Conditions: HCT-116.
The nature of experiment [30]: Concentration-dependent survival of SW480 colon cancer line, luminescence detection with CellTiter-Glo, half-maximal inhibitory concentration (AID 1117338). Format: functional.
Another experiment relates to P388. The experiment in a line: cells. In kind it is functional. Particulars: Mus musculus.
For experiment [31], the system named is BJ. The experiment in a line: cells. In kind it is functional, cell-based. Conditions: Homo sapiens.
Experiment [32] in a line: inhibitors of firefly luciferase expression or activity, dose response, H4 neuroglioma cells, luminescence (AID 1990). Format: functional, cell-based.
A further experiment relates to SN12K1. Kind of experiment: cells. Format: functional. Conditions: Homo sapiens.
Experiment [33] deals with BJ. Kind of experiment: cytotoxicity toward BJ-TERT-LT-ST fibroblasts, dose response, cell-based, RAS-independent, luminescence (AID 1935).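 Further: BJ fibroblasts immortalized with TERT plus LT and ST oncogenes.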 In kind it is functional. Particulars: Homo sapiens.
Experiment [34] can be described thus: RKO cell viability reduction, dose response, CellTiter-Glo luminescence (AID 1117322). Format: functional.
For experiment [35], the system named is BJ. Kind of experiment: cytotoxicity toward BJ-TERT fibroblasts, dose response, cell-based, RAS-independent, luminescence (AID 1933). In kind it is functional. Particulars: Homo sapiens.
Experiment [36] is described as follows: HeLa 2N DNA content increase, dose response, cell-based, IC50 (AID 1117349). Format: functional.
The nature of experiment [37]: SNU-C1 cell viability reduction, dose response, CellTiter-Glo luminescence (AID 1117323). Format: functional, cell-based.
Experiment [38] is described as follows: inhibitors of SNCA 5'UTR-driven reporter translation, confirmation, H4 neuroglioma cells, luminescence (AID 1988). Format: functional, cell-based.
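Wherever IC50 Mean is given: confirmatory dose-response retesting of NadD inhibitor hits first found in an ultra-high-throughput screen.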

Chain of RNA-editing ligase 1, mitochondrial (P86926 whole entry): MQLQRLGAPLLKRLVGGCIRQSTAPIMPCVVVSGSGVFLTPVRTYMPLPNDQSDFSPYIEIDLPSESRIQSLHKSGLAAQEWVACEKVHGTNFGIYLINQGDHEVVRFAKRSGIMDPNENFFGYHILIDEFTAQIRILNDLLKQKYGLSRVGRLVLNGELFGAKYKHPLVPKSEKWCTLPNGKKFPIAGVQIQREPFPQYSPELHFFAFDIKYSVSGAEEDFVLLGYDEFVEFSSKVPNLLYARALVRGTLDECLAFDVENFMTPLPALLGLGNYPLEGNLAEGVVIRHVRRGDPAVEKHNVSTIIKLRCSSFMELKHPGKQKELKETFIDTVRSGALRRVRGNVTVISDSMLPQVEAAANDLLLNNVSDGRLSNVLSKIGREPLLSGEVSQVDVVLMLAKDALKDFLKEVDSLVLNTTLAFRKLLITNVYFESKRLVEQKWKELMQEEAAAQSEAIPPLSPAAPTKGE

Turning to `Cc1ccc(-c2cc3nc(C)cc(C)n3n2)cc1`, the EC50 (in the experiment “cells [1]”; in experiment [2]; in experiment [3]) was > 67.5 µM (inactive) each time. In experiment [4], the IC50 is > 67.5 µM (inactive).
With `O=C1OC(c2ccc3ccccc3c2O)(c2ccc3ccccc3c2O)c2ccccc21`, the IC50 in experiment [5] is 20.9 µM (active); in experiment [6], > 80 µM (inactive); at Genome polyprotein it was 19 µM (active); on Protein Tat, > 100 µM (active); in experiment [8] it was 7.05 µM (active). Moreover, the CC50 (in experiment [7]; in the experiment with Vero) was > 40 µM (active) throughout.
The AC50 is the midpoint of the concentration-response curve, whichever way the signal moves. In the case of `COc1cc2sc3cc(NCC[C@@H]4CCCN4C)ccc3c(=O)c2cc1OC`, the AC50 in [9] is 17.6 µM (active); in “cells [10]”, 35.5 µM (active); in the experiment on HeLa it was 191 µM (active); in the experiment “cells [11]”, 38 µM (active); in experiment [13], 6.9 µM (active). The IC50 in experiment [12] was 26.2 µM (inactive).
Take `CCCCN(C)C(=O)c1ccc(Nc2nc(C(N)Cc3ccc(C(F)(F)F)cc3)cs2)nc1` (stereo unspecified): in [14], the IC50 is > 96.6 µM (inactive).
Consider `C[C@@H](O)C#Cc1ccc2c(c1)O[C@@H](CN(C)Cc1ccc(-c3ccccc3)cc1)[C@@H](C)CN([C@@H](C)CO)S2(=O)=O`, for which the AC50 in experiment [15] is 8.84 µM (active); in experiment [16] (A549) it was > 52 µM (inactive); in experiment [16] (a549), 49.4 µM (active); in experiment [17], > 60 µM (inactive).
In the case of `CN(C)CC[C@@H](c1ccc(Cl)cc1)c1ccccn1`, the IC50 in [18] is 17.7 µM (inactive).
Turning to `CS(=O)(=O)c1ccc(N2CCN(C(=O)c3ccc4c(c3)OCO4)CC2)cc1`, in [19], the concentration at half-maximal activity (AC50) was 15.1 µM (active).
For `CCCc1ccc(S(=O)(=O)N2CCN(C(=O)/C=C/c3ccc(F)cc3)CC2)cc1`, the IC50 in [20] was 0.0241 µM (active).
Usually GI50 stands for the concentration at which growth is held to half of that of the control. Consider `Sc1ncnc2nc[nH]c12` [MERCAPTOPURINE ANHYDROUS], for which the figures for the GI50 with P388/ADR, with P388 and in the experiment on SN12K1 were 19.5 µM (inactive), 8.89 µM (inactive) and 1.29 µM (inactive), respectively. The IC50 in experiment [21] was 0.26 µM (active); in experiment [23], 1.3 µM (active); in experiment [25], 0.635 µM (active); in experiment [26], 0.259 µM (active); in experiment [28], > 10 µM (inactive); in [29], 1.42 µM (active). Moreover, the IC50 is 1.04 µM (active) in [30], 0.659 µM (active) in experiment [34], > 10 µM (inactive) in [36] and > 20 µM (inactive) in experiment [37]. For the same molecule, the CC50 in experiment [22] was > 40 µM (active). Also, the EC50 is 5.35 µM (active) in experiment [24]; > 133 µM (inactive) with BJ [27]; 4.33 µM (inconclusive) in the experiment on BJ [31]; 13 µM (active) in experiment [32]; > 150 µM (not active) with BJ [33]; > 150 µM (not active) in the experiment with BJ [35]. Besides, the EC50 in experiment [38] was 11.6 µM (active).
